Tested on: ABCA1 mRNA in mouse macrophages (J774)
Test: ABCA1 gene expression (real-time PCR) in J774 macrophages
Format: cell-based
Protocol: Use the same amount of cDNA for all samples (4 μl of 20 μL RT reaction on 0.5 or 1 μg RNA). For each sample (to be run in triplicate), sample the following into a nuclease-free 1.5-mL microcentrifuge tube (add the volume for 2 samples more to calculate the final volume of PCR reaction mix): 2× TaqMan® Gene Expression Master Mix: 10 μl; 20× TaqMan® Gene Expression Assay: 1 μl; Nuclease free H2O: 5 μl. Cap the tube and invert it several times to mix the reaction components. Centrifuge the tube briefly.
J774 were seeded on 6× well plates (300,000 cells/well) and loaded with oxidized-LDL without the use of ^3H-cholesterol. […] Gene expression was assayed using the protocols described in Sections 8.3.2 (RNA extraction); 8.3.4 (reverse transcription), and 8.3.5 (qPCR). ABCA1 gene expression was determined with Taqman probe Mm00442646.m1 according to the manufacturer's protocol. The reference gene used is HPRT1 (Taqman probe: Mm00446968.m1).
(§1) J774 were seeded on 6 well plates (300,000 cells/well) and loaded with oxidized-LDL. […] Gene expression was assayed using the protocols described in Sections 8.3.2 (RNA extraction); 8.3.4 (reverse transcription), and 8.3.5 (qPCR). SR-BI gene (Taqman probe Mm00450234.m1), ABCG1 (Taqman probe Mm00437390.m1), SREBP1 (Taqman probe Mm01138344.m1) and ABCA1 (Taqman probe Mm00442646.m1) expression were determined according to the manufacturer's protocol. The reference gene used is HPRT1 (Taqman probe: Mm00446968.m1).
This study examined the kinetics of decreasing the mRNA level of ABCA1 in J774 macrophages. J774 were seeded on 6 well plates (300,000 cells/well) and loaded with oxidized-LDL. […] Gene expression was assayed using the protocols described in Sections 8.3.2 (RNA extraction); 8.3.4 (reverse transcription), and 8.3.5 (qPCR). ABCA1 (Taqman probe Mm00442646.m1) expression was determined according to the manufacturer's protocol. The reference gene used is HPRT1 (Taqman probe: Mm00446968.m1).
as §1, with “(qPCR).” for “(qPCR). SR-BI gene (Taqman probe Mm00450234.m1),”, “Mm00437390.m1)” for “Mm00437390.m1), SREBP1 (Taqman probe Mm01138344.m1)”
as §1, with “(qPCR).” for “(qPCR). SR-BI gene (Taqman probe Mm00450234.m1),”, “Mm00437390.m1)” for “Mm00437390.m1), SREBP1 (Taqman probe Mm01138344.m1)”
J774 were seeded on 6 well plates (600,000 cells/well) in DMEM 10% FCS. […] Medium was removed and the macrophages were washed with DMEM. […] Gene expression was assayed using the protocols described in Sections 8.3.2 (RNA extraction); 8.3.4 (reverse transcription), and 8.3.5 (qPCR). ABCG1 (Taqman probe Mm00437390.m1), ABCA1 (Taqman probe Mm00442646.m1) and SR-BI (Taqman probe Mm00450234.m1) expression were determined according to the manufacturer's protocol. The reference gene used is HPRT1 (Taqman probe: Mm00446968.m1).
J774 were seeded on 6 well plates (300,000 cells/well) in DMEM 2.5% FCS. […] The next day, medium was replaced by fresh DMEM supplemented with or without ApoA-I (25 or 250 μg/mL) to initiate ApoA-I cholesterol efflux for 2 hours. The experiment was stopped at different time points: 1) J774 stopped before addition of ApoA-I, 2) J774+DMEM (passive efflux for 2 hours), 3) J774+ApoA-I (25 μg/mL) for 2 hours and 4) J774+ApoA-I (250 μg/mL) for 2 hours. The RNA was extracted with the RiboPure™ kit according to the manufacturer's protocol.

| Compound | ABCA1 mRNA level (Study O, 0.03 to 30 mM, 6 hours) | ABCA1 mRNA expression (Study A, oxidized-LDL loaded, 25, 250 and 1000 μg/mL, 6 hours) | dose for diminishing half of the ABCA1 level (Study E, 6 hours) | time to decrease half of the ABCA1 mRNA level (Study F, 25 or 250 μg/mL) | ABCA1 mRNA level (Study G, 250 μg/mL, 6 hours, without cAMP) | ABCA1 mRNA level (RQ) (Study G, overnight cAMP 300 μM, then 250 μg/mL 6 hours) | effect of cAMP activation on CER-001 dose decreasing ABCA1 (Study I) | dose of maximum decrease of ABCA1 mRNA level (Study I, 6 hours) | doses at which decrease of ABCA1 mRNA level was observed (Study I, 6 hours, presence or absence of cAMP) | ABCA1 mRNA level (Study J, 24 hours treatment, 250 μg/mL) | time for ABCA1 mRNA level to return to baseline after removal (Study J, after 24 hours at 250 μg/mL) | ABCA1 mRNA level (Study L, overnight pre-incubation at 250 μg/mL) |
| --- | --- | --- | --- | --- | --- | --- | --- | --- | --- | --- | --- | --- |
| OC[C@H]1O[C@@H]2O[C@H]3[C@H](O)[C@@H](O)[C@@H](O[C@H]4[C@H](O)[C@@H](O)[C@@H](O[C@H]5[C@H](O)[C@@H](O)[C@@H](O[C@H]6[C@H](O)[C@@H](O)[C@@H](O[C@H]7[C@H](O)[C@@H](O)[C@@H](O[C@H]8[C@H](O)[C@@H](O)[C@@H](O[C@H]1[C@H](O)[C@H]2O)O[C@@H]8CO)O[C@@H]7CO)O[C@@H]6CO)O[C@@H]5CO)O[C@@H]4CO)O[C@@H]3CO [β-cyclodextrin, reference compound] | dose-dependent decrease |  |  |  |  |  |  |  |  |  |  |  |
| CER-001: engineered recombinant human apolipoprotein A-I HDL with sphingomyelin and DPPG; protein-to-phospholipid ratio 1:2.7, 97% Sph and 3% DPPG |  | decreased the ABCA1 mRNA at all the doses | around 7.5 μg/mL | 4 h | decreased | 1 | did not change the sufficient dose of CER-001 | around 15 μg/mL | 4 to 6 µg/mL | decrease | more than 8 hours | strongly decreased the ABCA1 mRNA level |
